In ChEMBL document CHEMBL3046837, “Synthesis of some novel amino and thiotetrazole purine derivatives and investigation of their antimicrobial activity and DNA interactions” (Med Chem Res, 2013) one finds Activity data, which are given here for 10 compounds.

Active and inactive are the calls of the source. No cut-off for these calls is given here.

One assay concerns Pseudomonas aeruginosa. Briefly: Antibacterial activity against Pseudomonas aeruginosa ATCC 27853 after 24 hr by disk diffusion method. It counts as functional, organism-based.
In assay [1] the test system is Escherichia coli. Briefly: Antibacterial activity against Escherichia coli ATCC 25922 after 24 hr by disk diffusion method. It is filed as functional, organism-based.
In assay [2] the test system is Escherichia coli. Briefly: Covalent binding to Escherichia coli pBR322 DNA assessed as increase in intensity of form 1 DNA at high concentration after 24 hr by agarose gel electrophoresis.
The subject of assay [3] is Escherichia coli. In words: Binding affinity to Escherichia coli pBR322 DNA assessed as change in mobility of form 2 DNA at low concentration after 24 hr by agarose gel electrophoresis.
A further assay concerns Candida tropicalis. In words: Antifungal activity against Candida tropicalis ATCC 13803 after 72 hr by disk diffusion method. It counts as functional, organism-based.
Assay [4] relates to Escherichia coli. In words: Binding affinity to Escherichia coli pBR322 DNA assessed as change in mobility of form 1 DNA at low concentration after 24 hr by agarose gel electrophoresis.
The subject of another assay is Enterococcus faecalis. In words: Antibacterial activity against Enterococcus faecalis […] after 24 hr by disk diffusion method. It is filed as functional, organism-based.
For the next assay, the system named is Bacillus cereus. In words: Antibacterial activity against Bacillus cereus NRLL B-3008 after 24 hr by disk diffusion method. It is filed as functional, organism-based.
The subject of assay [5] is Escherichia coli. Briefly: Covalent binding to Escherichia coli pBR322 DNA Guanine-guanine site assessed as inhibition of BamH1-mediated restriction digestion at 1250 uM by restriction endonuclease analysis.
For the next assay, the system named is Staphylococcus aureus. In words: Antibacterial activity against Staphylococcus aureus ATCC 25923 after 24 hr by disk diffusion method. It is filed as functional, organism-based.
For the next assay, the system named is Proteus vulgaris. Briefly: Antibacterial activity against Proteus vulgaris ATCC 8427 after 24 hr by disk diffusion method. It counts as functional, organism-based.
The test system of assay [6] is Escherichia coli. Briefly: Covalent binding to Escherichia coli pBR322 DNA adenine-adenine site assessed as inhibition of Hind3-mediated restriction digestion at 1250 uM by restriction endonuclease analysis.
The subject of another assay is Bacillus subtilis. In words: Antibacterial activity against Bacillus subtilis […] after 24 hr by disk diffusion method. It is filed as functional, organism-based.
In assay [7] the test system is Escherichia coli. Briefly: Antibacterial activity against Escherichia coli ATCC 35218 after 24 hr by disk diffusion method. It is filed as functional, organism-based.
In assay [8] the test system is Escherichia coli. In words: Covalent binding to Escherichia coli pBR322 DNA assessed as appearance of small DNA fragments at high concentration after 24 hr by agarose gel electrophoresis.
For a further assay, the system named is Candida albicans. Briefly: Antifungal activity against Candida albicans ATCC 10231 after 72 hr by disk diffusion method. It counts as functional, organism-based.
For assay [9], the system named is Escherichia coli. In words: Binding affinity to Escherichia coli pBR322 DNA assessed as decrease in mobility of form 1 DNA at high concentration after 24 hr by agarose gel electrophoresis.
In assay [10] the test system is Escherichia coli. In words: Binding affinity to Escherichia coli pBR322 DNA assessed as appearance of DNA fragments at high concentration after 24 hr by agarose gel electrophoresis.

`CCn1cnc2c(Nc3nnn[nH]3)ncnc21`: the result in the assay with Pseudomonas aeruginosa, in the assay with Escherichia coli [1], in the assay with Escherichia coli [3], in the assay on Candida tropicalis, with Escherichia coli [4] and in the assay with Enterococcus faecalis was inactive. Further, the outcome in the assay on Bacillus cereus, in the assay on Escherichia coli [5], in the assay on Staphylococcus aureus, in the assay on Proteus vulgaris, in the assay with Bacillus subtilis and in the assay with Escherichia coli [7] was inactive. The result with Candida albicans was inactive. Also, the outcome with Escherichia coli [2], in the assay with Escherichia coli [6] and in the assay on Escherichia coli [8] was Active.
For `CCCCCCn1cnc2c(Nc3nnn[nH]3)ncnc21`, the result in the assay on Pseudomonas aeruginosa, with Escherichia coli [1], in the assay on Escherichia coli [3], with Candida tropicalis, in the assay on Escherichia coli [4] and in the assay with Enterococcus faecalis was inactive. Also, the outcome with Bacillus cereus, with Escherichia coli [5], in the assay with Staphylococcus aureus, in the assay with Proteus vulgaris, in the assay with Bacillus subtilis and with Escherichia coli [7] was inactive. For the same compound, the result with Candida albicans was inactive. In addition, the result in the assay on Escherichia coli [2], in the assay on Escherichia coli [6] and with Escherichia coli [8] was Active.
For `CC(C)n1cnc2c(Nc3nnn[nH]3)ncnc21`, the outcome in the assay with Pseudomonas aeruginosa, in the assay with Escherichia coli [1], in the assay with Escherichia coli [3], in the assay with Candida tropicalis, with Escherichia coli [4] and in the assay on Enterococcus faecalis was inactive. Further, the outcome in the assay on Bacillus cereus, in the assay with Escherichia coli [5], with Staphylococcus aureus, in the assay on Proteus vulgaris, in the assay on Bacillus subtilis and in the assay with Escherichia coli [7] was inactive. Besides, in the assay with Candida albicans, the outcome was inactive. Further, the result with Escherichia coli [2], in the assay on Escherichia coli [6] and in the assay on Escherichia coli [8] was Active.
With `c1ccc(Cn2cnc3c(Nc4nnn[nH]4)ncnc32)cc1`, the result in the assay with Pseudomonas aeruginosa, with Escherichia coli [1], in the assay with Candida tropicalis, in the assay with Enterococcus faecalis, in the assay on Bacillus cereus and with Escherichia coli [5] was inactive. In addition, the result in the assay with Staphylococcus aureus, with Proteus vulgaris, in the assay on Bacillus subtilis, in the assay with Escherichia coli [7] and in the assay with Candida albicans was inactive. The outcome with Escherichia coli [9] and in the assay with Escherichia coli [6] was Active.
`Cn1nnnc1Sc1ncnc2[nH]cnc12`: the outcome in the assay with Pseudomonas aeruginosa, in the assay with Escherichia coli [1], with Candida tropicalis, in the assay on Enterococcus faecalis, with Bacillus cereus and in the assay with Staphylococcus aureus was inactive. Also, the outcome in the assay with Proteus vulgaris, in the assay on Bacillus subtilis, in the assay on Escherichia coli [7] and in the assay with Candida albicans was inactive. The outcome in the assay with Escherichia coli [9], in the assay with Escherichia coli [5] and with Escherichia coli [6] was Active.
`CCOC(=O)Cn1cnc2c(Nc3nnn[nH]3)ncnc21`: the result with Pseudomonas aeruginosa, in the assay with Escherichia coli [1], with Candida tropicalis, in the assay with Enterococcus faecalis, in the assay with Bacillus cereus and in the assay with Escherichia coli [5] was inactive. For the same compound, the outcome with Staphylococcus aureus, in the assay with Proteus vulgaris, with Bacillus subtilis, with Escherichia coli [7] and with Candida albicans was inactive. The outcome in the assay on Escherichia coli [10], in the assay on Escherichia coli [9] and with Escherichia coli [6] was Active.
With `c1nc(Nc2nnn[nH]2)c2nc[nH]c2n1`, the result in the assay with Pseudomonas aeruginosa, with Escherichia coli [1], in the assay with Escherichia coli [3], in the assay on Candida tropicalis, in the assay with Escherichia coli [4] and with Enterococcus faecalis was inactive. In addition, the outcome with Bacillus cereus, in the assay on Escherichia coli [5], in the assay on Staphylococcus aureus, in the assay with Proteus vulgaris, with Bacillus subtilis and with Escherichia coli [7] was inactive. Besides, the outcome in the assay with Candida albicans was inactive. For the same compound, the result in the assay on Escherichia coli [2], with Escherichia coli [6] and in the assay on Escherichia coli [8] was Active.
Regarding `CC(C)n1cnc2c(Sc3nnnn3C)ncnc21`, the outcome with Pseudomonas aeruginosa, in the assay on Escherichia coli [1], in the assay on Candida tropicalis, in the assay with Enterococcus faecalis, in the assay with Bacillus cereus and with Staphylococcus aureus was inactive. For the same compound, the result in the assay with Proteus vulgaris, in the assay with Bacillus subtilis, with Escherichia coli [7] and in the assay with Candida albicans was inactive. Moreover, the result in the assay on Escherichia coli [10], with Escherichia coli [9], with Escherichia coli [5] and with Escherichia coli [6] was Active.
Regarding `c1nc(Nc2nnn[nH]2)c2ncn(CC3CCC3)c2n1`, the outcome in the assay on Pseudomonas aeruginosa, with Escherichia coli [1], with Candida tropicalis, in the assay with Enterococcus faecalis, in the assay on Bacillus cereus and in the assay on Escherichia coli [5] was inactive. In addition, the result in the assay on Staphylococcus aureus, in the assay on Proteus vulgaris, in the assay on Bacillus subtilis, in the assay with Escherichia coli [7] and in the assay with Candida albicans was inactive. Further, the result in the assay on Escherichia coli [10], in the assay on Escherichia coli [9] and in the assay with Escherichia coli [6] was Active.
Consider `CCCn1cnc2c(Sc3nnnn3C)ncnc21`, for which the result in the assay with Pseudomonas aeruginosa, with Escherichia coli [1], in the assay with Candida tropicalis, with Enterococcus faecalis, with Bacillus cereus and in the assay on Staphylococcus aureus was inactive. Further, the outcome with Proteus vulgaris, with Bacillus subtilis, in the assay with Escherichia coli [7] and in the assay on Candida albicans was inactive. Also, the outcome in the assay with Escherichia coli [10], in the assay on Escherichia coli [9], in the assay on Escherichia coli [5] and in the assay on Escherichia coli [6] was Active.
